# Values quoted from earlier work in patent US20070015720A1, “Modulation of endogenous AICAR levels for the treatment of diabetes and obesity” (CytRx Corporation, priority 2005, published 2007).
# Key:
# [1] = system: obese Zucker (fa/fa) rats; conditions: long term treatment, high doses
# [2] = mice, murine pouch model of inflammation
# [3] = low dose, psoriasis patients, day of dosing
Compound,non-insulin stimulated glucose uptake (3T3L1 adipocytes),adipocyte differentiation (adipocytes),fasting concentrations of glucose and insulin [1],plasma triglyceride and free fatty acid levels [1],systolic blood pressure [1],increase of AICAR-monophosphate in splenocytes [2],urinary excretion of aminoimidazole carboxamide (AICA) [3]
"NC(=O)c1ncn([C@@H]2O[C@H](CO)[C@@H](O)[C@H]2O)c1N [AICAR, 5-aminoimidazole-4-carboxamide ribonucleoside]",increase,inhibits adipocyte differentiation at an early stage,decrease,reduce,decrease,–,–
O=C(O)c1cc(/N=N/c2ccc(S(=O)(=O)Nc3ccccn3)cc2)ccc1O [sulfasalazine],–,–,–,–,–,three-fold,–
CN(Cc1cnc2nc(N)nc(N)c2n1)c1ccc(C(=O)N[C@@H](CCC(=O)O)C(=O)O)cc1 [methotrexate],–,–,–,–,–,three-fold,statistically significant increase
